From patent US6740657B2, “Aminomethyl-pyrroloquinazoline compounds as thrombin receptor antagonists” (Ortho-McNeil Pharmaceutical, Inc., priority 2001, dated 2004)
Like-named read-outs stand apart in the source and are kept apart here.

Experiments:
[1] = test system: platelet aggregation stimulated by thrombin (gel-filtered platelets); experiment: In vitro inhibition of thrombin-induced gel-filtered platelet aggregation; assay type: cell-based, Human; conditions: agonist thrombin; for inhibition at 50 µM: Homo sapiens, Platelet, read-out: GFP Aggr. % Inhibition, Thr; for IC50: read-out: GFP Aggr. IC50 (μM), Thr
Experimental: (§1) In Vitro Inhibition of Thrombin-Induced Gel-Filtered Platelet Aggregation Assay
(§2) The percentage of platelet aggregation is calculated as an increase in light transmission of compound-treated platelet concentrate vs. control-treated platelet concentrate. Human blood is obtained from drug free, normal donors in tubes containing 0.13 M sodium citrate. Platelet rich plasma (PRP) is collected by centrifugation of whole blood at 200×g for 10 min at 25° C. The PRP (5 mL) is gel filtered through Sepharose 2B (bed volume 50 mL), and the platelet count is adjusted to 2×10^7 platelets per sample. The following constituents are added to a siliconized cuvette: concentrated platelet filtrate and Tyrode's buffer (0.14 M NaCl, 0.0027 M KCl, 0.012 M NaHCO3, 0.76 mM Na2HPO4, 0.0055 M glucose, 2 mg/mL BSA and 5.0 mM HEPES@pH 7.4) in an amount equal to 350 μL, 50 μL of 20 mM calcium and 50 μL of the test compound. Aggregation is monitored in a BIODATA aggregometer for the 3 min following the addition of agonist (thrombin 50 μL of 1 unit/mL).
(§3) Table 5 contains IC50 values (μM) or % inhibition@50 μM of the compounds against platelet aggregation stimulated (GFP Aggr.) by thrombin or TRAP-6 (Thr or TRAP-6) and IC50 values (μM) in a thrombin receptor (PAR-1) binding assay (Binding). The compounds of Table 5 correspond to those shown on Table 4.

[2] = test system: platelet aggregation stimulated by TRAP-6 (gel-filtered platelets); experiment: In vitro inhibition of TRAP-6-induced gel-filtered platelet aggregation; assay type: cell-based, Human; conditions: for IC50: agonist TRAP-6, read-out: GFP Aggr. IC50 (μM), TRAP-6; for inhibition at 50 µM: read-out: GFP Aggr. % Inhibition, TRAP-6
Experimental: as §1, §2, §3

[3] = target: T1, thrombin receptor (PAR-1) (Homo sapiens, UniProt P25116); experiment: In vitro thrombin receptor binding assay (CHRF membranes, tritiated 721-40); conditions: thrombin receptor (PAR-1) binding, read-out: Binding IC50 (μM), Thr.
T1 construct: CHRF membranes (Jones, Biochim. Biophys. Acta 1992, 1136, 272) are thawed from −70° C; endogenous in cells; the full cell line name is own knowledge
T1 sequence (P25116 22-425): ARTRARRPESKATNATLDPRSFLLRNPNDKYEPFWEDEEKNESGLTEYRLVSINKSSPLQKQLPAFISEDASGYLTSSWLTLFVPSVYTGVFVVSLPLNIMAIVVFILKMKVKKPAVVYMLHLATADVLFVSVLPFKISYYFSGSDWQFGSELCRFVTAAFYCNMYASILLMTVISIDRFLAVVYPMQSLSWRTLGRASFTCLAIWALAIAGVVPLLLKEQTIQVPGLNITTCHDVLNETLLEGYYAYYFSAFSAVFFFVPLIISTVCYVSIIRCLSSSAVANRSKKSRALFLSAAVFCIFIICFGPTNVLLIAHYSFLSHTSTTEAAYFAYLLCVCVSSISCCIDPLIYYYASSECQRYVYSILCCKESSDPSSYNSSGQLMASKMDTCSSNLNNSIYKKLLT
Experimental: In Vitro Thrombin Receptor Binding Assay
CHRF membranes (Jones, Biochim. Biophys. Acta 1992, 1136, 272) are thawed from −70° C., centrifuged at maximum speed for 5 min, washed twice with binding buffer (50 mM HEPES containing 5 mM MgCl2 and 0.1% BSA), and re-suspended in binding buffer (25 μg/[…]). 100 μL of membranes are added to the 24-Wallac plates and delivered to the Tomtech apparatus. In a typical experiment, 6 μL of samples (from a 125 μg/mL intermediary plate, 20% DMSO) and 44 μL buffer are delivered to the plates (final conc. of compounds is 3.7 μg/mL, 0.6% DMSO). Similarly, 6 μL 20% DMSO and 44 μL buffer are delivered to both column 1 (NSB) and column 12 (TB). 10 μL Ser-pFPhe-hArg-Leu-hArg-Lys-Tyr-NH2 (721-40; 500 μM in deionized water) is added to column 1.50 μL tritiated 721-40 (specific activity 46 Ci/mmol) is added to all the wells. The plates are mixed well for 20 seconds, incubated for 30 min, and then harvested with 10 mM HEPES/138 mM NaCl using the Skatron harvester. The filters (GF/C Brandel FPXLR 296) are presoaked 3 h in 0.5% polyethylenimine in HEPES/0.1M N-acetylglucosamine) are set in saran wrap and dried for 3 min in the microwave, and placed in sample bags (Wallac 1450-432). 4.5 mL scintillation fluid (Wallac, Betaplate Scint 1205-440) is added. The bags are sealed, placed in filter cassettes (Wallac 1450-104), and analyzed on the microbeta counter. […]

[4] = Homo sapiens, Platelet, agonist TRAP-6, % inhibition @ 50 μM

## COc1nc(Cl)nc2ccc3c(c(CN(C)C)cn3Cc3c(Cl)cccc3Cl)c12 [Compound 6, 3-chloro-7-[(2,6-dichlorophenyl)methyl]-1-methoxy-N,N-dimethyl-7H-pyrrolo[3,2-f]quinazoline-9-methanamine]
[1]; % inhibition @ 50 μM
  inhibition at 50 µM: 40%
[2]; Homo sapiens, Platelet
  IC50: 31 µM

## CN(C)Cc1cn(Cc2c(Cl)cccc2Cl)c2ccc3nc(Cl)nc(N)c3c12 [Compound 7, 1-amino-3-chloro-7-[(2,6-dichlorophenyl)methyl]-N,N-dimethyl-7H-pyrrolo[3,2-f]quinazoline-9-methanamine]
[1]; % inhibition @ 50 μM
  inhibition at 50 µM: 14%
[2]; [4]
  inhibition at 50 µM: 3%

## N^3-cyclopropyl-7-[(2,6-dichlorophenyl)methyl]-9-[(dimethylamino)methyl]-7H-pyrrolo[3,2-f]quinazoline-1,3-diamine [Compound 1]
[3]
  IC50: 9.6 µM
[1]
  IC50: 21 µM
[2]
  IC50: 13 µM

## CN(C)Cc1cn(Cc2c(Cl)cccc2Cl)c2ccc3nc(N[C@@H](Cc4ccccc4)C(=O)N[C@@H](CCN)C(=O)NCc4ccccc4)nc(N)c3c12 [Compound 2, α-[[1-amino-7-[(2,6-dichlorophenyl)methyl]-9-[(dimethylamino)methyl]-7H-pyrrolo[3,2-f]quinazolin-3-yl]amino]-N-[(1S)-3-amino-1-[[(phenylmethyl)amino]carbonyl]propyl]-(α^1S)-benzenepropanamide]
[1]
  IC50: 13 µM
[2]
  IC50: 3 µM

## CN(C)Cc1cn(Cc2c(Cl)cccc2Cl)c2ccc3nc(NC4CC4)ncc3c12 [Compound 4, 3-(cyclopropylamino)-7-[(2,6-dichlorophenyl)methyl]-N,N-dimethyl-7H-pyrrolo[3,2-f]quinazoline-9-methanamine]
[1]; % inhibition @ 50 μM
  inhibition at 50 µM: 30%
[2]; [4]
  inhibition at 50 µM: 20%

## CN(C)Cc1cn(Cc2c(Cl)cccc2Cl)c2ccc3nc(N(C)C)nc(N)c3c12 [Compound 3, 7-[(2,6-dichlorophenyl)methyl]-9-[(dimethylamino)methyl]-N^3,N^3-dimethyl-7H-pyrrolo[3,2-f]quinazoline-1,3-diamine]
[1]; % inhibition @ 50 μM
  inhibition at 50 µM: 27%
[2]; [4]
  inhibition at 50 µM: 40%

## Nc1nc(Cl)nc2ccc3c(c(CN4CCCC4)cn3Cc3c(Cl)cccc3Cl)c12 [Compound 5, 3-chloro-7-[(2,6-dichlorophenyl)methyl]-9-(1-pyrrolidinylmethyl)-7H-pyrrolo[3,2-f]quinazolin-1-amine]
[1]; % inhibition @ 50 μM
  GFP Aggr. % Inhibition, Thr: 16%
[2]; agonist TRAP-6, % inhibition @ 50 μM
  GFP Aggr. % Inhibition, TRAP-6: 32%
